# Reference: patent publication US9873702B2, “Heterocyclic compounds as biogenic amine transport modulators” (Southern Research Institute, priority 2014, dated 2018)
# Like-named read-outs stand apart in the source and are kept apart here.
# Columns and labels:
# [1] = target: T1, serotonin transporter (SERT) (Rattus norvegicus, UniProt P31652); assay: Serotonin reuptake ([^3H]serotonin uptake) inhibition in rat brain synaptosomes; type: biochemical
# T1 construct: Freshly removed whole brain minus cerebellum and caudate was homogenized; from tissue; host or cells: rat whole brain minus cerebellum and caudate, synaptosomes
# [2] = target: norepinephrine transporter (NET) (Rattus norvegicus, UniProt Q9WTR4); assay: Norepinephrine reuptake ([^3H]norepinephrine uptake) inhibition in rat brain synaptosomes
# Description: Freshly removed whole brain minus cerebellum and caudate was homogenized in 10% ice-cold sucrose with 12 strokes of a hand-held Potter-Elvehjem homogenizer followed by centrifugation at 1000×g for 10 minutes. The supernatants were saved on ice and used immediately. Transporter activity at NET was assessed using 10 nM [^3H]norepinephrine. […] Uptake inhibition assays were conducted at 37° C. and were initiated by adding 100 μL of tissue to 900 μL assay buffer containing test drug and [^3H]norepinephrine. Test drugs were diluted in assay buffer containing 1 mg/mL bovine serum albumin. Nonspecific uptake was measured by incubating in the presence of 10 μM indatraline. The reactions were stopped after 10 minutes by rapid vacuum filtration with a cell harvester (BRANDEL) over GF/B filters (Whatman) presoaked in wash buffer maintained at 25° C. (10 mM Tris-HCl, pH 7.4/150 mM NaCl). Filters were rinsed with 6 mL wash buffer and retained tritium was quantified by a MicroBeta liquid scintillation counter (PerkinElmer) after overnight extraction in 0.6 mL of liquid scintillation cocktail (Cytoscint, ICN). The data from three experiments were pooled and fit to a dose-response curve equation (using Kaleidagraph), to yield an Emax and EC50 value.
# The data from three experiments were pooled and fit to a dose-response curve equation (using KaleidaGraph; Synergy Software, Reading, Pa.) to yield an Emax and IC50 value.
# [3] = target: dopamine transporter (DAT) (Rattus norvegicus, UniProt P23977); assay: Dopamine reuptake ([^3H]dopamine uptake) inhibition in rat brain synaptosomes; details: for IC50: DA Uptake EC50 (nM ± SD), rat caudate synaptosomes, 5 nM [^3H]dopamine, 15 min, 25° C., three experiments pooled
# [4] = read-out: DA Uptake Emax (% I ± SD)
# T1 sequence (P31652 whole entry): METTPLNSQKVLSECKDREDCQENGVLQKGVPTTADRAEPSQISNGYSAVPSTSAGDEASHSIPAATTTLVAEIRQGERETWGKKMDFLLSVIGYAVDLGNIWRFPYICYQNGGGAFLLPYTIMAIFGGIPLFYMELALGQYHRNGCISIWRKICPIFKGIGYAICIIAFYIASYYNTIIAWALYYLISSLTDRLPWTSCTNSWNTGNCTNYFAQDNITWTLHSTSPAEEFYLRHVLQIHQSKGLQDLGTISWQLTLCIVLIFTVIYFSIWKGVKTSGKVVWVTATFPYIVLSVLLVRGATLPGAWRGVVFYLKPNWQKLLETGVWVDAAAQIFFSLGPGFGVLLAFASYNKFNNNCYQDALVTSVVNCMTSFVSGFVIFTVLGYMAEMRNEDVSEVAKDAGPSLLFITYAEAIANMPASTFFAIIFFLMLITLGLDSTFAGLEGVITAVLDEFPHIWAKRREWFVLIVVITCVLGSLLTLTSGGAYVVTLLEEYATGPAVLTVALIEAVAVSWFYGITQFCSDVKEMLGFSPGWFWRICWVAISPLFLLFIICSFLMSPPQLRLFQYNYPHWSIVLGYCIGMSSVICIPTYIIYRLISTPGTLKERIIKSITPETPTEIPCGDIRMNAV
# Sequence of dopamine transporter (DAT) (P23977 whole entry): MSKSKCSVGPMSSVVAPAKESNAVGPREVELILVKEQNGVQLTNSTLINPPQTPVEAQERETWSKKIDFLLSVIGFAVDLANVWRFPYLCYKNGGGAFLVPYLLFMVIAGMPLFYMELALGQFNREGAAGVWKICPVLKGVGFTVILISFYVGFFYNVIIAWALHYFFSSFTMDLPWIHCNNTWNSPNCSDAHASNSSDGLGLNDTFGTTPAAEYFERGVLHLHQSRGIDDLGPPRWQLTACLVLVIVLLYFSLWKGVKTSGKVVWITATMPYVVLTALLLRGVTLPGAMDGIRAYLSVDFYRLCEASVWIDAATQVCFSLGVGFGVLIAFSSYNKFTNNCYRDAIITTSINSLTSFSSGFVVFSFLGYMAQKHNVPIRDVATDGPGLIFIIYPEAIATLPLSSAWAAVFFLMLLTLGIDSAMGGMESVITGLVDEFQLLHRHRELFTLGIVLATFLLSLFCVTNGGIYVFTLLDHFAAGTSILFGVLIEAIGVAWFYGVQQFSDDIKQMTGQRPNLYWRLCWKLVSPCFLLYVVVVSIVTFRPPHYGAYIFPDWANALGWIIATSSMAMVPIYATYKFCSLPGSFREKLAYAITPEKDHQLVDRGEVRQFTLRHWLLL
smiles,measurement,setting,value
CS(=O)(=O)Nc1ccc(-c2nc(NCC(c3ccccc3)c3ccncc3)c3ccccc3n2)cc1 (centres unmarked) [SRI-30524],IC50,"[1]; mean ± S.D., n = 3, read-out: SERT Uptake IC50",8.7 ± 0.9 nM
same,NET Uptake Emax,"[2]; mean ± S.D., n = 3",76 ± 2%
same,IC50,"[2]; read-out: NET Uptake IC50, mean ± S.D., n = 3",44 ± 6 nM
"COc1cc2nc(-c3cncnc3)nc(NCC(c3ccccc3)c3ccccc3)c2cc1OC [compound 25, N-(2,2-Diphenylethyl)-6,7-Dimethoxy-2-(Pyrimidin-5-yl)Quinazolin-4-Amine]",melting point,,93 °C
same,IC50,[3],1090 nM
same,Emax,[3]; [4],< 100%
"OC(CNc1nc(-c2ccc3nccn3c2)nc2ccccc12)(c1ccccc1)c1ccccc1 [compound 96, 2-((2-(Imidazo[1,2-A]Pyridin-6-yl)Quinazolin-4-yl)Amino)-1,1-Diphenylethanol]",IC50,"[1]; rat brain synaptosomes, 5 nM [^3H]serotonin, 30 min, 25° C., read-out: 5HT Uptake EC50 (nM ± SD)",16 ± 5 nM
same,Emax,"[1]; rat brain synaptosomes, 5 nM [^3H]serotonin, maximal inhibition from dose-response fit, read-out: 5HT Uptake Emax (% I ± SD)",55 ± 2%
same,IC50,[3],9.2 ± 1.2 nM
same,Emax,[3]; [4],70 ± 1%
same,NE Uptake Emax (% I ± SD),"[2]; rat brain synaptosomes, 10 nM [^3H]norepinephrine, maximal inhibition from dose-response fit",65 ± 3 % I
same,IC50,"[2]; read-out: NE Uptake EC50 (nM ± SD), rat brain synaptosomes, 10 nM [^3H]norepinephrine, 10 min, 37° C.",98 ± 23 nM
"COC(=O)[C@H]1[C@@H](OC(=O)c2ccccc2)C[C@@H]2CC[C@H]1N2C [cocaine, reference compound]",Emax,[1]; read-out: SERT Uptake Emax,98 ± 2%
same,Emax,[3]; read-out: DAT Uptake Emax,100 ± 2%
same,NET Uptake Emax,"[2]; mean ± S.D., n = 3",102 ± 2%
"c1ccc(C(CNc2nc(N3CCc4[nH]c5ccccc5c4C3)nc3ccccc23)c2ccccc2)cc1 [compound 191, 2-(3,4-Dihydro-1H-Pyrido[4,3-B]Indol-2(5H)-yl)-N-(2,2-Diphenylethyl)Quinazolin-4-Amine]",melting point,,258 to 260 °C
same,IC50,[3],16 ± 3 nM
same,Emax,[3]; [4],78 ± 2%
"Cc1cc2nccn2cc1-c1nc(NC(Cc2ccccc2)c2ccccc2)c2ccccc2n1 (centres unmarked) [compound 172, N-(1,2-Diphenylethyl)-2-(7-Methylimidazo[1,2-A]Pyridin-6-yl)Quinazolin-4-Amine]",melting point,,87 to 89 °C
same,IC50,[3],5 ± 1.1 nM
same,Emax,[3]; [4],76 ± 2%
"CC(=O)N[C@H](CNc1nc(-c2ccc3nccn3c2)nc2ccccc12)c1ccccc1 [compound 149, (S)—N-(2-((2-(Imidazo[1,2-A]Pyridin-6-yl)Quinazolin-4-yl)Amino)-1-Phenylethyl)Acetamide]",melting point,,99 to 101 °C
same,IC50,[3],3720 ± 608 nM
same,Emax,[3]; [4],80 ± 4%
"c1ccc(CNc2ncc(-c3nc(NCC(c4ccccc4)c4ccccc4)c4ccccc4n3)cn2)cc1 [compound 46, 2-(2-(Benzylamino)Pyrimidin-5-yl)-N-(2,2-Diphenylethyl)Quinazolin-4-Amine]",melting point,,184 °C
same,IC50,[3],544 ± 248 nM
same,Emax,[3]; [4],60 ± 6%
"c1ccc(C(Nc2nc(-c3ccc4nccn4c3)nc3ccccc23)c2ccccc2)cc1 [compound 86, N-Benzhydryl-2-(Imidazo[1,2-A]Pyridin-6-yl)Quinazolin-4-Amine]",melting point,,258 °C
same,IC50,[3],55 ± 6 nM
same,Emax,[3]; [4],70 ± 1%
"c1ccc(OC(CNc2nc(-c3ccc4nccn4c3)nc3ccccc23)c2ccccc2)cc1 (centres unmarked) [compound 175, 2-(Imidazo[1,2-A]Pyridin-6-yl)-N-(2-Phenoxy-2-Phenylethyl)Quinazolin-4-Amine]",melting point,,286 to 288 °C
same,IC50,[3],106 ± 19 nM
same,Emax,[3]; [4],68 ± 2%
"c1ccc(C(CCNc2nc(-c3cncnc3)nc3ccccc23)c2ccccc2)cc1 [compound 22, N-(3,3-Diphenylpropyl)-2-(Pyrimidin-5-yl)Quinazolin-4-Amine]",melting point,,154 °C
same,IC50,[3],750 nM
same,Emax,[3]; [4],100%
"c1ccc(C(CNc2nc(-c3cc4ccccc4[nH]3)nc3ccccc23)c2ccccc2)cc1 [compound 42, N-(2,2-Diphenylethyl)-2-(1H-Indol-2-yl)Quinazolin-4-Amine]",melting point,,93 °C
same,IC50,[3],200 nM
same,Emax,[3]; [4],< 100%
"Cn1cnc2ccc(-c3nc(NCC(c4ccccc4)c4ccccc4)c4ccccc4n3)cc21 [compound 64, N-(2,2-Diphenylethyl)-2-(1-Methyl-1H-Benzo [D]Imidazol-6-yl)Quinazolin-4-Amine]",melting point,,248 °C
same,IC50,[3],19 ± 3 nM
same,Emax,[3]; [4],75 ± 2%
"c1ccc(CC(CNc2nc(-c3ccc4nccn4c3)nc3ccccc23)c2ccccc2)cc1 (centres unmarked) [compound 136, N-(2,3-Diphenylpropyl)-2-(imidazo[1,2-a]pyridin-6-yl)quinazolin-4-amine]",melting point,,208 to 210 °C
same,IC50,[3],34 ± 4 nM
same,Emax,[3]; [4],78 ± 2%
"FC(F)(F)CNc1ncc(-c2nc(NCC(c3ccccc3)c3ccccc3)c3ccccc3n2)cn1 [compound 45, N-(2,2-Diphenylethyl)-2-(2-((2,2,2-Trifluoroethyl)Amino)Pyrimidin-5-yl)Quinazolin-4-Amine]",melting point,,224 °C
same,IC50,[3],175 ± 68 nM
same,Emax,[3]; [4],58 ± 4%
"c1ccc(C(CNc2nc(-c3ccc4nccn4c3)nc3ccccc23)c2ccccn2)cc1 (centres unmarked) [compound 94, 2-(Imidazo[1,2-A]Pyridin-6-yl)-N-(2-Phenyl-2-(Pyridin-2-yl)Ethyl)Quinazolin-4-Amine]",melting point,,238 °C
same,IC50,[3],36 ± 4 nM
same,Emax,[3]; [4],69 ± 1%
"Nc1ccc(-c2nc(NCC(c3ccccc3)c3ccccc3)c3ccccc3n2)cn1 [compound 88, 2-(6-Aminopyridin-3-yl)-N-(2,2-Diphenylethyl)Quinazolin-4-Amine]",melting point,,86 °C
same,IC50,[3],41 ± 13 nM
same,Emax,[3]; [4],86 ± 5%
"c1ccc(C(CNc2nc(-c3ccc4[nH]cnc4c3)nc3ccccc23)c2ccccc2)cc1 [compound 85, 2-(1H-Benzo [D]Imidazol-5-yl)-N-(2,2-Diphenylethyl)Quinazolin-4-Amine]",melting point,,142 °C
same,IC50,[3],> 5000 nM
"c1ccc(C(CNc2nc(-c3ccc4nncn4c3)nc3ccccc23)c2ccccc2)cc1 [compound 114, 2-([1,2,4]Triazolo[4,3-A]Pyridin-6-yl)-N-(2,2-Diphenylethyl)Quinazolin-4-amine]",melting point,,224 °C
same,IC50,[3],67 ± 7 nM
same,Emax,[3]; [4],68 ± 1%
"Cn1ccc2cc(-c3nc(NCC(c4ccccc4)c4ccccc4)c4ccccc4n3)ccc21 [compound 77, N-(2,2-Diphenylethyl)-2-(1-Methyl-1H-Indol-5-yl)Quinazolin-4-Amine]",melting point,,222 °C
same,IC50,[3],28 ± 5 nM
same,Emax,[3]; [4],69 ± 2%
"c1ccc(C(CNc2nc(-c3ccc4scnc4c3)nc3ccccc23)c2ccccc2)cc1 [compound 145, 2-(Benzo[D]Thiazol-5-yl)-N-(2,2-Diphenylethyl)Quinazolin-4-amine]",melting point,,224 to 226 °C
same,IC50,[3],533 ± 89 nM
same,Emax,[3]; [4],67 ± 2%
"Cc1cc2nccn2cc1-c1nc(NCCc2cccnc2)c2ccccc2n1 [compound 180, 2-(7-Methylimidazo[1,2-A]Pyridin-6-yl)-N-(2-(Pyridin-3-yl)Ethyl)Quinazolin-4-Amine]",melting point,,241 to 244 °C
same,IC50,[3],252 ± 22 nM
same,Emax,[3]; [4],73 ± 1%
"c1ccc(C(CNc2nc(-c3cnc(N4CCCC4)nc3)nc3ccccc23)c2ccccc2)cc1 [compound 37, N-(2,2-Diphenylethyl)-2-(2-(Pyrrolidin-1-yl)Pyrimidin-5-yl)Quinazolin-4-Amine]",melting point,,208 °C
same,IC50,[3],121 ± 27 nM
same,Emax,[3]; [4],66 ± 3%
"c1ccc(C(CCNc2nc(-c3cccs3)nc3ccccc23)c2ccccc2)cc1 [compound 7, N-(3,3-Diphenylpropyl)-2-(thiophen-2-yl)quinazolin-4-amine]",melting point,,152 to 155 °C
same,IC50,[3],910 nM
same,Emax,[3]; [4],100%
"Nc1ncc(-c2nc(NCC(O)(c3ccccc3)c3ccccc3)c3ccccc3n2)cn1 [compound 97, 2-((2-(2-Aminopyrimidin-5-yl)Quinazolin-4-yl)Amino)-1,1-Diphenylethanol]",melting point,,222 °C
same,IC50,[3],665 ± 150 nM
same,Emax,[3]; [4],90 ± 5%
"Cc1cc2nccn2cc1-c1nc(NCC(c2ccncc2)c2ccc[nH]2)c2ccccc2n1 (centres unmarked) [compound 185, 2-(7-Methylimidazo[1,2-A]Pyridin-6-yl)-N-(2-(Pyridin-4-yl)-2-(1H-Pyrrol-2-yl)Ethyl)Quinazolin-4-Amine]",melting point,,214 to 216 °C
same,IC50,[3],11 ± 2 nM
same,Emax,[3]; [4],71 ± 2%
"c1ccc(C(CNc2nc(-c3cccc4[nH]ccc34)nc3ccccc23)c2ccccc2)cc1 [compound 32, N-(2,2-Diphenylethyl)-2-(1H-Indol-4-yl)Quinazolin-4-Amine]",melting point,,100 °C
same,IC50,[3],189 ± 37 nM
same,Emax,[3]; [4],68 ± 3%
"c1ccc(C(CNc2nc(-c3ccc4ncsc4c3)nc3ccccc23)c2ccccc2)cc1 [compound 70, 2-(Benzo [D]Thiazol-6-yl)-N-(2,2-Diphenylethyl)Quinazolin-4-Amine]",melting point,,198 °C
same,IC50,[3],45 ± 15 nM
same,Emax,[3]; [4],67 ± 4%
"CC(C)(C)OC(=O)n1cc(-c2nc(NCC(c3ccccc3)c3ccccc3)c3ccccc3n2)c2cccnc21 [compound 73, Tert-Butyl 3-(4-((2,2-Diphenylethyl)Amino)Quinazolin-2-yl)-1H-Pyrrolo[2,3-B]Pyridine-1-Carboxylate]",melting point,,105 °C
same,IC50,[3],1310 nM
same,Emax,[3]; [4],< 100%
"Cc1cc2nccn2cc1-c1nc(NCC(C)c2ccccc2)c2ccccc2n1 (centres unmarked) [compound 184, 2-(7-Methylimidazo[1,2-A]Pyridin-6-yl)-N-(2-Phenylpropyl)Quinazolin-4-Amine]",melting point,,208 to 212 °C
same,IC50,[3],5.3 ± 2 nM
same,Emax,[3]; [4],81 ± 4%
"c1ccc(C(CNc2nc(-c3ccc4nccn4c3)nc3ccccc23)N2CCCC2)cc1 (centres unmarked) [compound 121, 2-(Imidazo[1,2-A]Pyridin-6-yl)-N-(2-Phenyl-2-(Pyrrolidin-1-yl)Ethyl)Quinazolin-4-Amine]",melting point,,205 to 207 °C
same,IC50,[3],170 ± 50 nM
same,Emax,[3]; [4],83 ± 5%
